Measurements reported in BindingDB's records for doi:10.1016/j.bmcl.2005.03.076 (Janssen-Cilag, 2005).

Target: Sodium-dependent noradrenaline transporter (Rattus norvegicus)
Experiment: In vitro binding affinity against norepinephrine transporter using [3H]-nisoxetine as radioligand

Row | Ki [nM] | Compound
1 | 3110 | Brc1ccc2c(c1)[C@H]1O[C@H](Cn3oc4ccc(CN5CCOCC5)cc43)C[C@H]1c1ccccc1O2 [8-((2S,3aS,12bS)-11-Bromo-2,3,3a,12b-tetrahydro-1,8-dioxa-dibenzo[e,h]azulen-2-ylmethyl)-3-morpholin-4-ylmethyl-7-oxa-8-aza-bicyclo[4.2.0]octa-1(6),2,4-triene]
2 | 620 | Nc1ccc2on(C[C@@H]3C[C@H]4c5ccccc5Oc5ccc(Br)cc5[C@H]4O3)c2c1 [8-((2S,3aS,12bS)-11-Bromo-2,3,3a,12b-tetrahydro-1,8-dioxa-dibenzo[e,h]azulen-2-ylmethyl)-7-oxa-8-aza-bicyclo[4.2.0]octa-1(6),2,4-trien-3-ylamine]
3 | 2250 | CN(C)c1ccc2on(C[C@@H]3C[C@H]4c5ccccc5Oc5ccc(Br)cc5[C@H]4O3)c2c1 [[8-((2S,3aS,12bS)-11-Bromo-2,3,3a,12b-tetrahydro-1,8-dioxa-dibenzo[e,h]azulen-2-ylmethyl)-7-oxa-8-aza-bicyclo[4.2.0]octa-1(6),2,4-trien-3-yl]-dimethyl-amine]
